Data: patent US20230131966A1, “FUNGICIDAL AMIDES” (FMC Corporation, priority 2020, published 2023)

Experiments:
Type in all cases: in vivo
[1] = test system: Puccinia recondita f. sp. tritici; experiment: Test B: wheat leaf rust control on wheat seedlings; details: wheat seedlings, 100 = 100% disease control, 0 = no control
[2] = test system: Phytophthora infestans; experiment: whole plant or invertebrate; details: tomato seedlings, 100 = 100% disease control, 0 = no control
[3] = test system: Zymoseptoria tritici; experiment: Test C: wheat leaf blotch control on wheat seedlings; details: wheat seedlings, 100 = 100% disease control, 0 = no control
[4] = test system: Botrytis cinerea; experiment: Test E: tomato Botrytis control on tomato seedlings; details: 100 = 100% disease control, 0 = no control
[5] = test system: Plasmopara viticola; experiment: Test D: grape downy mildew control on grape seedlings; details: 100 = 100% disease control, 0 = no control
[6] = test system: Phakopsora pachyrhizi; experiment: Test A: Asian soybean rust control on soybean seedlings; details: soybean seedlings, 100 = 100% disease control, 0 = no control
[7] = test system: Erysiphe graminis f. sp. tritici; experiment: Test G: wheat powdery mildew control on wheat seedlings; details: 100 = 100% disease control, 0 = no control

Compound | Test B disease control rating ([1]; 250 ppm) | Test F disease control rating ([2]; 250 ppm) | Test C disease control rating ([3]; 250 ppm) | Test E disease control rating ([4]; 250 ppm) | Test D disease control rating ([5]; 250 ppm) | Test A disease control rating ([6]; 250 ppm) | Test G disease control rating ([7]; 250 ppm) | also measured
COc1ccnc(C(=O)NC(C)C(=O)OC(C)c2ccc(F)cc2Cc2ccccc2)c1O (mixture of isomers) [Compound 12] | 97% | 0% | 0% | 0% | 83% | 99% | 0% | –
COc1ccnc(C(=O)NC(C)C(=O)OC(C)c2ccccc2Cc2ccc(F)cc2)c1O (mixture of isomers) [Compound 13] | 100% | 0% | 73% | 0% | 50% | 100% | 0% | –
COc1ccnc(C(=O)NC(C)C(=O)OC(C)c2ccc(F)cc2)c1OC(C)=O (mixture of isomers) [Compound 15] | 19% | 0% | 69% | 0% | 39% | 75% | 0% | –
COc1ccnc(C(=O)NC(C)C(=O)OC(C)c2ccccc2[N+](=O)[O-])c1O (mixture of isomers) [Compound 16] | 0% | 0% | 76% | 0% | 59% | 13% | 0% | –
COc1ccnc(C(=O)NC(C)C(=O)OC(C)c2ccccc2C(F)(F)F)c1O (mixture of isomers) [Compound 17] | – | – | – | – | – | – | – | Test B disease control rating ([1]; 150 ppm): 41%; Test F disease control rating ([2]; 150 ppm): 0%; Test C disease control rating ([3]; 150 ppm): 92%; Test E disease control rating ([4]; 150 ppm): 0%; Test D disease control rating ([5]; 150 ppm): 23%; Test A disease control rating ([6]; 150 ppm): 66%; Test G disease control rating ([7]; 150 ppm): 0%
COc1ccnc(C(=O)NC(C)C(=O)OC(C)c2ccccc2C(F)(F)F)c1OC(C)=O (mixture of isomers) [Compound 18] | 68% | 0% | 93% | 0% | 35% | 62% | 0% | –
COc1ccnc(C(=O)NC(C)C(=O)OC(C)c2ccc([N+](=O)[O-])cc2)c1OC(C)=O (mixture of isomers) [Compound 20] | 68% | 0% | 64% | 0% | 4% | 0% | 0% | –
COc1ccnc(C(=O)NC(C)C(=O)OC(C)c2ccccc2-n2ccc(C(F)(F)F)n2)c1OC(C)=O (mixture of isomers) [Compound 25] | 0% | 0% | 17% | 0% | 41% | 97% | 0% | –
COc1ccnc(C(=O)NC(C)C(=O)OC(C)c2ccccc2-n2ccc(C(F)(F)F)n2)c1O (mixture of isomers) [Compound 26] | 0% | 0% | 47% | 0% | 43% | 73% | 0% | –
COc1ccnc(C(=O)NC(C)C(=O)OC(C)c2cccc(-n3ccc(C(F)(F)F)n3)c2)c1OC(C)=O (mixture of isomers) [Compound 27] | 99% | 0% | 81% | 0% | 38% | 98% | 0% | –
COc1ccnc(C(=O)NC(C)C(=O)OC(C)c2cccc(-n3ccc(C(F)(F)F)n3)c2)c1O (mixture of isomers) [Compound 28] | 74% | 0% | 90% | 0% | 40% | 99% | 0% | –
COc1ccnc(C(=O)NC(C)C(=O)OC(C)c2ccc(C#N)cc2)c1OC(C)=O (mixture of isomers) [Compound 33] | 0% | 0% | 87% | 0% | 66% | 13% | 0% | –
COc1ccnc(C(=O)NC(C)C(=O)OC(C)c2ccc(C#N)cc2)c1O (mixture of isomers) [Compound 34] | 0% | 0% | 13% | 0% | 58% | 0% | 0% | –
COc1ccnc(C(=O)NC(C)C(=O)OC(C)c2ccc(C(F)(F)F)cc2)c1OC(C)=O (mixture of isomers) [Compound 35] | 100% | 0% | 80% | 0% | 68% | 100% | 0% | –
COc1ccnc(C(=O)NC(C)C(=O)OC(C)C2CCC(C(F)(F)F)CC2)c1O (mixture of isomers) [Compound 179] | 100% | 0% | 99% | 0% | 82% | 100% | – | –
COc1ccnc(C(=O)N[C@@H](C)C(=O)OC(C)c2ccc(C3CCCCC3)cc2)c1OC(C)=O (single isomer, unassigned) [Compound 86] | – | 0% | 65% | 0% | 24% | 73% | 0% | –
COc1ccnc(C(=O)N[C@@H](C)C(=O)OC(C)C2CCCCC2)c1OC(C)=O (single isomer, unassigned) [Compound 88] | – | 0% | 58% | 0% | 43% | 99% | 0% | –
COc1ccnc(C(=O)N[C@@H](C)C(=O)O[C@@H](C)C2CCCCC2)c1OC(C)=O [Compound 87, N-[[3-(acetyloxy)-4-methoxy-2-pyridinyl]carbonyl]-L-alanine (1S)-1-cyclohexylethyl ester] | – | – | – | – | – | – | – | pest or weed control at 250 ppm ([2]; Phytophthora infestans, in Solanum lycopersicum, read-out: Test F disease control rating, 250 ppm): 47%; pest or weed control at 250 ppm ([3]; Zymoseptoria tritici, 250 ppm, read-out: Test C disease control rating): 95%; pest or weed control at 250 ppm ([4]; Botrytis cinerea, 250 ppm, read-out: Test E disease control rating): 0%; pest or weed control at 250 ppm ([5]; Plasmopara viticola, 250 ppm, read-out: Test D disease control rating): 21%; pest or weed control at 250 ppm ([6]; Phakopsora pachyrhizi, 250 ppm, read-out: Test A disease control rating): 100%; pest or weed control at 250 ppm ([7]; Blumeria graminis, 250 ppm, read-out: Test G disease control rating): 0%
